In general, Km refers to the concentration of substrate that gives half-maximal velocity.

From ChEMBL document CHEMBL1133372, “Mechanistic studies on type I and type II dehydroquinase with (6R)- and (6S)-6-fluoro-3-dehydroquinic acids” (Bioorg Med Chem Lett, 2000) come the findings set out here.

SMILES strings stand for the structures.

The target of test [1] is T1, 3-dehydroquinate dehydratase (Escherichia coli K-12) (UniProt P05194).
T1 sequence (whole entry): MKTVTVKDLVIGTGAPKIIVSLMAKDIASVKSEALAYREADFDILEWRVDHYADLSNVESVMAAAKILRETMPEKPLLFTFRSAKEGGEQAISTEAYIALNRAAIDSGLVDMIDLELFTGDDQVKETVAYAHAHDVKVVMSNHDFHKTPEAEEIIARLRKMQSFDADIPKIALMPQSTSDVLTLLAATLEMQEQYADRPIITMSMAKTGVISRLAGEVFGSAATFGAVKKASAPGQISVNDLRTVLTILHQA
The test can be described thus: Kcat / Km value was evaluated against type 1 Dehydroquinase of Escherichia coli.

The target in test [2] is T1, 3-dehydroquinate dehydratase (Escherichia coli K-12). The test can be described thus: Kcat value was evaluated against type 1 Dehydroquinase of Escherichia coli.
In test [3] the test system is Aspergillus nidulans. The test can be described thus: Kcat value was evaluated against type 2 Dehydroquinase of Aspergillus nidulans.
Test [4] concerns Mycobacterium tuberculosis. The test can be described thus: The compound was evaluated for its kinetic parameter (Km) against type 2 Dehydroquinase of Mycobacterium tuberculosis.
For test [5], the system named is Aspergillus nidulans. In words: The compound was evaluated for its kinetic parameter (Km) against type 2 Dehydroquinase of Aspergillus nidulans.
In test [6] the test system is Mycobacterium tuberculosis. In words: Kcat value was evaluated against type 2 Dehydroquinase of Mycobacterium tuberculosis.

`O=C1CC(O)(C(=O)O)C(F)C(O)C1O` (stereo in doubt; 2) had a k cat/Km in test [1] of 310000 M⁻¹ s⁻¹. For the same compound, the k cat was 3 s⁻¹ in test [2], 4.6 s⁻¹ in the test on Aspergillus nidulans [3] and 0.14 s⁻¹ in test [6]. Further, the Km in test [4] is 3.6 µM; in the test on Aspergillus nidulans [5], 39 µM.

Take `O=C1CC(O)(C(=O)O)C(F)C(O)C1O` (stereo in doubt; 3): in test [1], the k cat/Km was 310000 M⁻¹ s⁻¹. Also, the k cat in test [2] was 36 s⁻¹; in the test on Aspergillus nidulans [3], 46 s⁻¹; in test [6], 1.1 s⁻¹. Also, the Km in test [4] amounted to 7.9 µM; with Aspergillus nidulans [5], 50 µM.

On to `O=C1CC(O)(C(=O)O)CC(O)C1O` (stereo unspecified), for which the k cat in the test with Aspergillus nidulans [3] was determined as 313 s⁻¹; in test [6], 2.6 s⁻¹. Also, the Michaelis-Menten constant (Km) in test [4] amounted to 13 µM; in the test on Aspergillus nidulans [5], 122 µM.
